Results taken from patent publication US20220397564A1, “ENGINEERING SPATIAL-ORGANIZED CARDIAC ORGANOIDS FOR DEVELOPMENTAL TOXICITY TESTING” (priority 2021, published 2022).
Where two headings read alike, the source gives them in different places.

Legend:
[1] = tested on: hiPSC-based cardiac organoids; settings: for concentration with no contractile functions (stopped beating) / concentration at which cardiac organoids/tissue failed to differentiate (cardiac differentiation abolished) / organoid formation: human; for organoid formation: 100 μM
zebrafish embryos = settings: for proportion of embryos with normal (D-looped) heart looping: across / at higher concentrations; for embryos expressing the GFP transgene: Tg(my17:GFP)
[2] = tested on: cardiac organoids (cTnT positive cells); experiment: flow cytometry of cardiac differentiation efficiency (cTnT) of drug-treated organoids; assay type: cell-based, human; settings: with increasing treatment concentration
Experimental: Cardiac organoids were dissociated using 0.25% Trypsin for 10-15 minutes. Cells were collected, centrifuged and washed with PBS. Cells were fixed and permeabilized with a mixture of 4% (vol/vol) paraformaldehyde and 0.2% (vol/vol) TritonX solution for 15 minutes. Cells were incubated with primary antibody cardiac troponin T (Thermofisher cat. no. MA5-12960) in a 1:250 dilution for 1 hour in PBS, and then incubated with AlexaFluor 546 secondary fluorophore for an additional hour. The cell suspension was washed, centrifuged and filtered through 35 μm mesh cell strainer. Flow cytometry was performed on the BDAccuriC6 at Flow Cytometry Core at Syracuse University.
Concentrations were chosen after evaluation of blood plasma concentrations reported for each drug from the FDA drug information database (accessdata.FDA.gov). Concentrations were chosen to be at or approximated by blood plasma concentrations, while accounting for drug solubility in water or DMSO, while also supplying a large range in order to detect potential toxicity. Drugs were diluted in the appropriate culture media at three concentrations each increasing by a factor of 10 with respective controls. […] Samples were terminated on Day 20 for motion tracking analysis and for fluorescence/confocal imaging to assess the developmental toxicity of specific drugs based on the organoid morphology and contractile physiology.

[3] = tested on: hiPSC-based cardiac organoids; experiment: cardiac developmental toxicity assay on hiPSC-derived cardiac organoids (differentiation, contractile behavior, 3D morphology)

Structure (SMILES) | FWHM [1] | beat rate [1] | height [1] | organoid formation / 3D organoid morphology [1] | developmental toxicity (cardiac looping) (zebrafish embryos; zebrafish, in vivo) | developmental toxicity on zebrafish embryonic heart development (cardiac looping) (zebrafish embryos; zebrafish, in vivo) | concentration at which cardiac organoids/tissue failed to differentiate (cardiac differentiation abolished) [1] [µM] | other results
CC1(C)S[C@@H]2[C@H](NC(=O)[C@H](N)c3ccc(O)cc3)C(=O)N2[C@H]1C(=O)O [Amoxicillin] | smaller | decreased | smaller | – | – | – | – | beat duration [1]: increased
O=C1NC(=O)C(c2ccccc2)(c2ccccc2)N1 [Phenytoin] | smaller | – | smaller | smaller cardiac organoids than controls, but still maintained structural integrity | mild embryotoxic effects | mild developmental toxic effect | – | concentration with no contractile functions (stopped beating) [1]: 100 µM
O=C1CCC(N2C(=O)c3ccccc3C2=O)C(=O)N1 (stereo not shown) [Thalidomide] | – | high variability | – | abnormal cardiac organoids | very mild toxicity level | not as significant as what was observed in the organoid model | – | area ratio [1]: decrease; area ratio of cardiac muscle coverage [1]: less cardiac tissue coverage; percentage of cells expressing cTnT [2]: considerable reduction; proportion of embryos with normal (D-looped) heart looping (zebrafish embryos; 48 hpf): did not notably decrease
O=C([O-])[O-].[Li+].[Li+] [Lithium Carbonate] | – | – | – | – | – | – | – | organoid formation / 3D organoid morphology ([3]; all tested concentrations or not specified, vs controls): mild toxicity; effect on cardiac differentiation ([3]; concentration not specified): slight reduction; effect on contractile functions (overall) ([3]; concentration not specified, listed as lithium): did not affect; effect on contractile functions (overall) ([3]; concentration not specified, listed as lithium carbonate): no significant toxicity effects; FWHM ([3]; high / higher concentrations (thalidomide in b100: 100 μM)): moderate toxicity; developmental toxicity (cardiac looping) (zebrafish embryos; 48 hpf, all concentrations): severe developmental toxic effects; developmental toxicity on zebrafish embryonic heart development (cardiac looping) (zebrafish embryos; 48 hpf, concentration not specified): moderate toxicity
CN(C)CCOC(C)(c1ccccc1)c1ccccn1 (stereo not shown) [Doxylamine Succinate] | – | slower | – | no drug effects | – | – | – | effect on contractile functions (overall) [1]: prominent effects; percentage of cells expressing cTnT [2]: did not affect; proportion of embryos with normal (D-looped) heart looping (zebrafish embryos; 48 hpf): considerable proportion
CO[C@H]1/C=C/O[C@@]2(C)Oc3c(C)c(O)c4c(O)c(c(/C=N/N5CCN(C)CC5)c(O)c4c3C2=O)NC(=O)/C(C)=C\C=C\[C@H](C)[C@H](O)[C@@H](C)[C@@H](O)[C@@H](C)[C@H](OC(C)=O)[C@@H]1C [Rifampicin] | toxicity | toxicity | toxicity | – | mild embryotoxic effects | mild developmental toxic effect | 100 | contraction velocity [1]: toxicity; organoid formation [1]: severe developmental toxicity at a high concentration (100 μM) with no organoid formation
CC1=C(/C=C/C(C)=C/C=C/C(C)=C\C(=O)O)C(C)(C)CCC1 [Isotretinoin, 13-cis-retinoic acid] | – | – | – | large organoids | severe developmental toxic effects | severe defects | 1 | embryos expressing the GFP transgene (zebrafish embryos; zebrafish, in vivo, 48 hpf): 0%
CC1=C(/C=C/C(C)=C/C=C/C(C)=C/C(=O)O)C(C)(C)CCC1 [Tretinoin, all-trans-retinoic acid] | – | – | – | – | severe developmental toxic effects | severe defects | 10 | effect on cardiac differentiation [1]: abolished all cardiac differentiation; concentration with no contractile functions (stopped beating) [1]: 10 µM; embryos expressing the GFP transgene (zebrafish embryos; zebrafish, in vivo, 48 hpf): 0%
C[C@H]1c2cccc(O)c2C(=O)C2=C(O)[C@]3(O)C(=O)C(C(N)=O)=C(O)[C@@H](N(C)C)[C@@H]3[C@@H](O)[C@@H]21 [Doxycycline] | Significant toxicity | Significant toxicity | Significant toxicity | – | severe developmental toxic effects | moderate toxicity | 100 | beat duration [1]: Significant toxicity; contraction velocity [1]: Significant toxicity; organoid formation [1]: failed to create 3D organoids
